Assays:
ThyX = target: T1, ThyX (Streptomyces asoensis, UniProt M1ETU3); assay: LC-MS methylation assay; format: biochemical; settings: NADPH, CH2H4folate; 50 mmol/L Tris-HCl pH 8.0
T1 construct: gene thyX_2; recombinant
T1 sequence (M1ETU3 1-246): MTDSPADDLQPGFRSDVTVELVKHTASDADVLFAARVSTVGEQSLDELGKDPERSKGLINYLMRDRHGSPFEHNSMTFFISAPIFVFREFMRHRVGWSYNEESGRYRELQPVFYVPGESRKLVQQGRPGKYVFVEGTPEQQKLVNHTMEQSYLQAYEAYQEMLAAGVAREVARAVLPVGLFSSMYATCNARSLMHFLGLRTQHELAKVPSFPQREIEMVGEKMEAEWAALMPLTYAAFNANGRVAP

SVIThyX2 = target: T2, SVIThyX2 (Streptomyces viridochromogenes, UniProt D9X6S9); assay: LC-MS methylation assay; format: biochemical; settings: NADPH, CH2H4folate; 50 mmol/L Tris-HCl pH 8.0
T2 construct: gene thyX

PolB = target: T3, PolB (Streptomyces asoensis, UniProt C1IC19); assay: crystal structure; format: binding
T3 construct: N-terminal His6-tagged, expressed in E. coli BL21(DE3); FAD-containing; homotetramer

[1] = target: PolB from S. cacaoi (UMP C-5 methylase with thymidylate synthase activity) (S. cacaoi); assay: crystal structure; PolB with 4 mmol/L 5-Br dUMP; 1.4 mol/L sodium acetate, 0.1 mol/L sodium cacodylate pH 6.5, 20°C
[2] = target: PolB from S. cacaoi (UMP C-5 methylase with thymidylate synthase activity) (S. cacaoi); assay: crystal structure; apo-PolB, space group P2(1), two tetramers in the asymmetric unit; 17% PEG4000, 0.2 mol/L Li2SO4, 0.1 mol/L Tris-HCl pH 8.5, 20°C
methylation kinetics [3] = substrate: O=c1ccn([C@@H]2O[C@H](COP(=O)(O)O)[C@@H](O)[C@H]2O)c(=O)[nH]1; assay: methylation kinetics; format: biochemical, Streptomyces asoensis; settings: NADPH and CH2H4folate co-substrates, assay buffer 50 mmol/L Tris-HCl pH 8.0
methylation kinetics [4] = substrate: O=c1ccn([C@H]2C[C@H](O)[C@@H](COP(=O)(O)O)O2)c(=O)[nH]1; assay: methylation kinetics; format: biochemical, Streptomyces asoensis; settings: NADPH and CH2H4folate co-substrates, assay buffer 50 mmol/L Tris-HCl pH 8.0

T2 sequence (D9X6S9 entry or part of it): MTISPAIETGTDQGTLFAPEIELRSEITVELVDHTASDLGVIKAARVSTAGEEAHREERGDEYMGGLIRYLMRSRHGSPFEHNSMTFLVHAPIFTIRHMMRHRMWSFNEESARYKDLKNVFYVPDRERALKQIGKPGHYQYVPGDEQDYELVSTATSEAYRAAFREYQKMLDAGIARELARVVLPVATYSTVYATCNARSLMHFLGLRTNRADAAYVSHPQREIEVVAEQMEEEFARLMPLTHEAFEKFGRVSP

For O=c1ccn([C@H]2C[C@H](O)[C@@H](COP(=O)(O)O)O2)c(=O)[nH]1 [dUMP], the LC-MS methylation assay (ThyX) was “recombinant S. cacaoi ThyX could catalyze the methylation of dUMP but not UMP” and the LC-MS methylation assay (SVIThyX2) was “SVIThyX2 was able to catalyze the methylation for both UMP and dUMP”.

In the case of O=c1[nH]c(=O)n([C@H]2C[C@H](O)[C@@H](COP(=O)(O)O)O2)cc1Br [5-Br dUMP], the crystal structure (PolB; 2.28 Å, substrate analog in active site, stacked on FAD isoalloxazine) is reported as “structures in complex with substrate analogs 5-Br dUMP and 5-Br UMP”.

For Cc1cc2nc3c(=O)[nH]c(=O)nc-3n(C[C@H](O)[C@H](O)[C@H](O)COP(=O)(O)OP(=O)(O)OC[C@H]3O[C@@H](n4cnc5c(N)ncnc54)[C@H](O)[C@@H]3O)c2cc1C [FAD], the crystal structure (PolB; bound flavin in the 5-Br dUMP complex) was 5-Br dUMP poses strong π-π interaction with the isoalloxazine moiety of FAD.

With O=c1ccn([C@@H]2O[C@H](COP(=O)(O)O)[C@@H](O)[C@H]2O)c(=O)[nH]1 [UMP] the LC-MS methylation assay (SVIThyX2) was “SVIThyX2 was able to catalyze the methylation for both UMP and dUMP”.

“PolB from S. cacaoi (UMP C-5 methylase with thymidylate synthase activity) (enzyme)” was tested, and the stoichiometry N [1] was 4 and the stoichiometry N [2] was 4.

O=c1[nH]c(=O)n([C@@H]2O[C@H](COP(=O)(O)O)[C@@H](O)[C@H]2O)cc1Br [5-Br UMP] was tested, and the crystal structure (PolB; 1.76 Å, substrate analog in active site) was “structures in complex with substrate analogs 5-Br dUMP and 5-Br UMP”.

B1: PolB (Streptomyces asoensis) (protein)
chain: MESPRIELRSDITVELVDSSASDLAVVKAARVSTAGEDANDELYDGGSTRGLIRYLMRSRHGSPFEHNSMTFLVRAPIFTVRHLMRHRTWSFNEESARYREVGAAFYVPDATRLLRQEGKPGDYRYVGGSTDDHQQVVRSATRAYEVAFEEYQRLLDSGIAREIARLVLPVSTYSVLYATCNARALMHFLSLRTHRPDAAYVSHPQREIEMVAEQMETAWAKLMPVTHEAFTAFGRVSP
notes: N-terminal His6-tagged, expressed in E. coli BL21(DE3); FAD-containing; homotetramer
Molecule B1 has a Km (methylation kinetics [3]) of 19.48 ± 4.15 µM, a kcat (methylation kinetics [3]) of 0.0515 ± 0.00283 s⁻¹ and a Km (methylation kinetics [4]) of 12.96 ± 0.89 µM. The kcat (methylation kinetics [4]) was 0.029 ± 0.00083 s⁻¹.
